Each block holds one compound with its values, some of them ahead of it.
Tested on: 947758-054-R-J2-PDC spheroid growth, percent test/control
Test: Anticancer human tumor 947758-054-R-J2-PDC patient-derived colon adenocarcinoma cell line growth inhibition [CLK]
Details: spheroids with HUVEC and MSC; for IC50: curve of first compound; for viability, T/C: stronger effect = lower value
Summary of the method: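 Patient-derived tumor cells grown as complex spheroids with HUVEC endothelial cells and mesenchymal stem cells, treated with drug combinations. Concentrations descend in half-log steps from near clinical Cmax, or from 10 microM if Cmax unknown.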

[1] = second compound 0.0316 µM, first compound 0.0316 µM
[2] = second compound 0.0316 µM, first compound 0.1 µM
[3] = second compound 0.0316 µM, first compound 0.316 µM
[4] = second compound 0.0316 µM, first compound 1 µM
[5] = second compound 0.0316 µM, first compound 3.16 µM
[6] = second compound 0.0316 µM, first compound 10 µM
[7] = second compound 0.1 µM, first compound 0.0316 µM
[8] = second compound 0.1 µM, first compound 0.1 µM
[9] = second compound 0.1 µM, first compound 0.316 µM
[10] = second compound 0.1 µM, first compound 1 µM
[11] = second compound 0.1 µM, first compound 3.16 µM
[12] = second compound 0.1 µM, first compound 10 µM
[13] = second compound 0.316 µM, first compound 0.0316 µM
[14] = second compound 0.316 µM, first compound 0.1 µM
[15] = second compound 0.316 µM, first compound 0.316 µM
[16] = second compound 0.316 µM, first compound 1 µM
[17] = second compound 0.316 µM, first compound 3.16 µM
[18] = second compound 0.316 µM, first compound 10 µM
[19] = second compound 1 µM, first compound 0.0316 µM
[20] = second compound 1 µM, first compound 0.1 µM
[21] = second compound 1 µM, first compound 0.316 µM
[22] = second compound 1 µM, first compound 1 µM
[23] = second compound 1 µM, first compound 3.16 µM
[24] = second compound 1 µM, first compound 10 µM
[25] = second compound 3.16 µM, first compound 0.0316 µM
[26] = second compound 3.16 µM, first compound 0.1 µM
[27] = second compound 3.16 µM, first compound 0.316 µM
[28] = second compound 3.16 µM, first compound 1 µM
[29] = second compound 3.16 µM, first compound 3.16 µM
[30] = second compound 3.16 µM, first compound 10 µM
[31] = second compound 10 µM, first compound 0.0316 µM
[32] = second compound 10 µM, first compound 0.1 µM
[33] = second compound 10 µM, first compound 0.316 µM
[34] = second compound 10 µM, first compound 1 µM
[35] = second compound 10 µM, first compound 3.16 µM
[36] = second compound 10 µM, first compound 10 µM
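Also: spheroids exposed to compounds for one week before readout.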
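For viability, T/C in this document: 100% = DMSO vehicle control wells.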

Structure (SMILES): COC1C=CCC(C)C(C)S(=O)(=O)NC(=O)c2ccc3c(c2)N(CC2CCC21)CC1(CCCc2cc(Cl)ccc21)CO3 (stereo unspecified) + CN1CCN(c2cc(C(=O)Nc3cc4cc(-c5cnn(C)c5)ccc4cn3)ccn2)CC1
IC50 (second compound 0.0316 µM): 8020 nM
IC50 (second compound 0.1 µM): 8680 nM
IC50 (second compound 0.316 µM): < 31.6 nM
IC50 (second compound 1 µM): < 31.6 nM
IC50 (second compound 3.16 µM): < 31.6 nM
IC50 (second compound 10 µM): < 31.6 nM
viability, T/C [1]: 111%
viability, T/C [2]: 106%
viability, T/C [3]: 111%
viability, T/C [4]: 97%
viability, T/C [5]: 101%
viability, T/C [6]: 37.8%
viability, T/C [7]: 137%
viability, T/C [8]: 163%
viability, T/C [9]: 179%
viability, T/C [10]: 174%
viability, T/C [11]: 151%
viability, T/C [12]: 35.2%
viability, T/C [13]: 4.59%
viability, T/C [14]: 2.89%
viability, T/C [15]: 2.74%
viability, T/C [16]: 3.21%
viability, T/C [17]: 3.47%
viability, T/C [18]: 6.05%
viability, T/C [19]: 1.87%
viability, T/C [20]: 4.11%
viability, T/C [21]: 0.16%
viability, T/C [22]: 1.58%
viability, T/C [23]: 1.7%
viability, T/C [24]: 0.3%
viability, T/C [25]: 0.35%
viability, T/C [26]: 0.72%
viability, T/C [27]: 0.26%
viability, T/C [28]: 1.14%
viability, T/C [29]: 0.26%
viability, T/C [30]: 0.15%
viability, T/C [31]: 1.19%
viability, T/C [32]: 3.23%
viability, T/C [33]: 2.27%
viability, T/C [34]: 1.77%
viability, T/C [35]: 0.61%
viability, T/C [36]: 1.23%

Structure (SMILES): CC1(C)CCC(CN2CCN(c3ccc(C(=O)NS(=O)(=O)c4ccc(NCC5CCOCC5)c([N+](=O)[O-])c4)c(Oc4cnc5[nH]ccc5c4)c3)CC2)=C(c2ccc(Cl)cc2)C1 + CN1CCN(c2cc(C(=O)Nc3cc4cc(-c5cnn(C)c5)ccc4cn3)ccn2)CC1
IC50 (second compound 0.0316 µM): 5540 nM
IC50 (second compound 0.1 µM): 6730 nM
IC50 (second compound 0.316 µM): < 31.6 nM
IC50 (second compound 1 µM): < 31.6 nM
IC50 (second compound 3.16 µM): < 31.6 nM
IC50 (second compound 10 µM): < 31.6 nM
viability, T/C [1]: 106%
viability, T/C [2]: 142%
viability, T/C [3]: 113%
viability, T/C [4]: 86.5%
viability, T/C [5]: 101%
viability, T/C [6]: 6.09%
viability, T/C [7]: 174%
viability, T/C [8]: 220%
viability, T/C [9]: 181%
viability, T/C [10]: 178%
viability, T/C [11]: 139%
viability, T/C [12]: 2.94%
viability, T/C [13]: 4.83%
viability, T/C [14]: 6.64%
viability, T/C [15]: 4.64%
viability, T/C [16]: 5.62%
viability, T/C [17]: 4.76%
viability, T/C [18]: 2.09%
viability, T/C [19]: 0.18%
viability, T/C [20]: 2.13%
viability, T/C [21]: 1.78%
viability, T/C [22]: 0.17%
viability, T/C [23]: 1.22%
viability, T/C [24]: 0.59%
viability, T/C [25]: 0.97%
viability, T/C [26]: 1.19%
viability, T/C [27]: 0.31%
viability, T/C [28]: 0.2%
viability, T/C [29]: 0.16%
viability, T/C [30]: 3.63%
viability, T/C [31]: 0.86%
viability, T/C [32]: 3.93%
viability, T/C [33]: 1.09%
viability, T/C [34]: 0.43%
viability, T/C [35]: 0.52%
viability, T/C [36]: 0.32%

IC50 (second compound 0.0316 µM): 68.2 nM
IC50 (second compound 0.1 µM): 42.3 nM
IC50 (second compound 0.316 µM): < 31.6 nM
IC50 (second compound 1 µM): < 31.6 nM
IC50 (second compound 3.16 µM): < 31.6 nM
IC50 (second compound 10 µM): < 31.6 nM
Structure (SMILES): COc1cccc2c1C(=O)c1c(O)c3c(c(O)c1C2=O)CC(O)(C(=O)CO)CC3OC1CC(N)C(O)C(C)O1 (stereo unspecified) + CNC(=O)c1ccc(Nc2nc(OC3CCCC3)c3c(-c4ccc5nc(C)oc5c4)c[nH]c3n2)c(OC)c1
viability, T/C [1]: 59%
viability, T/C [2]: 41.9%
viability, T/C [3]: 32.6%
viability, T/C [4]: 8.58%
viability, T/C [5]: 0.41%
viability, T/C [6]: 6.15%
viability, T/C [7]: 52.9%
viability, T/C [8]: 42.3%
viability, T/C [9]: 23.6%
viability, T/C [10]: 4.38%
viability, T/C [11]: 0.29%
viability, T/C [12]: 4.57%
viability, T/C [13]: 45.4%
viability, T/C [14]: 32.1%
viability, T/C [15]: 12.9%
viability, T/C [16]: 2.1%
viability, T/C [17]: 0.25%
viability, T/C [18]: 5.74%
viability, T/C [19]: 28.7%
viability, T/C [20]: 22.5%
viability, T/C [21]: 5.4%
viability, T/C [22]: 0.36%
viability, T/C [23]: 0.24%
viability, T/C [24]: 6.92%
viability, T/C [25]: 28.1%
viability, T/C [26]: 15.5%
viability, T/C [27]: 5.36%
viability, T/C [28]: 0.27%
viability, T/C [29]: 0.27%
viability, T/C [30]: 9.95%
viability, T/C [31]: 23.3%
viability, T/C [32]: 20.3%
viability, T/C [33]: 4.23%
viability, T/C [34]: 0.21%
viability, T/C [35]: 1%
viability, T/C [36]: 12.1%

From PubChem BioAssay AID2060605 (Molecular Pharmacology Branch, DTP, NCI, 2025)
